Test results from PubChem BioAssay AID330 (DTP/NCI, 2004).
Where “and” joins values, the source holds several entries; their conditions need not be identical. Equal entries are not always repeated. Inconclusive results and toxic doses are left out. How the source made its calls: active means survival T/C of 150% or more; inactive means T/C below 125% in these data.

Tested on: P388 leukemia ip, CD2F1 mice, survival T/C
Assay: NCI In Vivo Anticancer Drug Screen. Data for tumor model P388 Leukemia (intraperitoneal) in CD2F1 (CDF1) mice
Conditions: endpoint: median survival time, higher = longer survival
Method in brief: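 Mice carrying the transplanted tumor received test compound or vehicle. Survival was recorded in each group, and the value is the treated-group measurement divided by that of the vehicle-treated control group.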

[1] = dose: 50.0 mg/kg/injection, schedule: Q01DX005 (ip), vehicle: saline with Tween-80
[2] = dose: 100.0 mg/kg/injection, schedule: Q01DX005 (ip), vehicle: saline with Tween-80
[3] = dose: 200.0 mg/kg/injection, schedule: Q01DX005 (ip), vehicle: saline with Tween-80
[4] = dose: 50.0 mg/kg/injection, schedule: Q01DX009 (ip), vehicle: Klucel (hydroxypropylcellulose) (HPC)
[5] = dose: 100.0 mg/kg/injection, schedule: Q01DX009 (ip), vehicle: Klucel (hydroxypropylcellulose) (HPC)
[6] = dose: 200.0 mg/kg/injection, schedule: Q01DX009 (ip), vehicle: Klucel (hydroxypropylcellulose) (HPC)
[7] = dose: 50.0 mg/kg/injection, schedule: Q01DX009 (ip), vehicle: saline
[8] = dose: 100.0 mg/kg/injection, schedule: Q01DX009 (ip), vehicle: saline
[9] = dose: 60.0 mg/kg/injection, schedule: Q01DX005 (ip), vehicle: saline with Tween-80
[10] = dose: 120.0 mg/kg/injection, schedule: Q01DX005 (ip), vehicle: saline with Tween-80
[11] = dose: 50.0 mg/kg/injection, schedule: Q04DX003 (ip), vehicle: saline with Tween-80
[12] = dose: 12.5 mg/kg/injection, schedule: Q01DX005 (ip), vehicle: Klucel (hydroxypropylcellulose) (HPC)
[13] = dose: 25.0 mg/kg/injection, schedule: Q01DX005 (ip), vehicle: Klucel (hydroxypropylcellulose) (HPC)
[14] = dose: 50.0 mg/kg/injection, schedule: Q01DX005 (ip), vehicle: Klucel (hydroxypropylcellulose) (HPC)

Measured: T/C

C/C(N=NC(=S)N1CCCCCC1)=C1\C=CC=CN1O
inactive: [1] 106 % of control | [2] 108 % of control | [3] 110 % of control

CN(C)c1ccc(NC(=S)Nc2ccccc2C(F)(F)F)cc1
inactive: [4] 100 % of control | [5] 100 % of control | [6] 96 % of control

S=c1s[nH]c2c1CCC2
inactive: dose: 50.0 mg/kg/injection, schedule: Q01DX009 (ip), vehicle: saline with Tween-80 98 % of control | [7] 105 % of control | dose: 100.0 mg/kg/injection, schedule: Q01DX009 (ip), vehicle: saline with Tween-80 101 % of control | [8] 110 % of control | dose: 200.0 mg/kg/injection, schedule: Q01DX009 (ip), vehicle: saline with Tween-80 105 % of control | dose: 200.0 mg/kg/injection, schedule: Q01DX009 (ip), vehicle: saline 120 % of control | dose: 400.0 mg/kg/injection, schedule: Q01DX009 (ip), vehicle: saline with Tween-80 95 % of control

COc1ccccc1C1C2CCCC(C2O)C(c2ccccc2OC)N1C (stereo unspecified)
inactive: dose: 100.0 mg/kg/injection, schedule: Q04DX003 (ip), vehicle: saline 99 % of control and 92 % of control | dose: 100.0 mg/kg/injection, schedule: Q04DX003 (ip), vehicle: suspension in saline 100 % of control | dose: 200.0 mg/kg/injection, schedule: Q04DX003 (ip), vehicle: saline 98 % of control and 102 % of control | dose: 200.0 mg/kg/injection, schedule: Q04DX003 (ip), vehicle: suspension in saline 107 % of control | dose: 400.0 mg/kg/injection, schedule: Q04DX003 (ip), vehicle: saline 98 % of control and 94 % of control | dose: 400.0 mg/kg/injection, schedule: Q04DX003 (ip), vehicle: suspension in saline 99 % of control

S=C1SC2=NCCN2C2=NCCN12
inactive: dose: 11.25 mg/kg/injection, schedule: Q01DX001 (ip), vehicle: Klucel (hydroxypropylcellulose) (HPC) 96 % of control | dose: 22.5 mg/kg/injection, schedule: Q01DX001 (ip), vehicle: Klucel (hydroxypropylcellulose) (HPC) 102 % of control | dose: 45.0 mg/kg/injection, schedule: Q01DX001 (ip), vehicle: Klucel (hydroxypropylcellulose) (HPC) 100 % of control

O=C(O)CCC(CCC(=O)O)(C(=O)O)C(=O)O
inactive: dose: 60.0 mg/kg/injection, schedule: Q01DX005 (ip), vehicle: saline 96 % of control | dose: 120.0 mg/kg/injection, schedule: Q01DX005 (ip), vehicle: saline 99 % of control

CC(=O)/C(=C\c1cccc(Cl)c1)C(=O)CCN(C)C
inactive: [9] 108 % of control and 111 % of control | [10] 115 % of control

CCCCCCCCCC[N+](C)([O-])CCCCCC[N+](C)([O-])CCCCCCCCCC (stereo unspecified)
inactive: [11] 102 % of control | dose: 100.0 mg/kg/injection, schedule: Q04DX003 (ip), vehicle: saline with Tween-80 99 % of control

CCCCCCCC/C=C\CCCCCCCCN1CCOCC1
inactive: [7] 97 % of control | [8] 106 % of control

O=[N+]([O-])c1ccc(F)c(Cl)c1
inactive: dose: 100.0 mg/kg/injection, schedule: Q04DX003 (ip), vehicle: other 100 % of control | dose: 200.0 mg/kg/injection, schedule: Q04DX003 (ip), vehicle: other 100 % of control

CCOC(=O)c1cc(Br)c(=O)n(C)c1
inactive: [1] 96 % of control | [2] 95 % of control | [3] 89 % of control

c1ccc2c(c1)[nH]c1c2c[n+]2c3c(cccc13)CCC2
inactive: dose: 8.33 mg/kg/injection, schedule: Q01DX009 (ip), vehicle: saline 115 % of control | dose: 18.7 mg/kg/injection, schedule: Q01DX009 (ip), vehicle: saline 95 % of control

C1=NCCNc2nc3ccccc3cc2C=NCCNc2nc3ccccc3cc21
inactive: dose: 50.0 mg/kg/injection, schedule: Q04DX002 (ip), vehicle: saline 100 % of control | dose: 100.0 mg/kg/injection, schedule: Q04DX002 (ip), vehicle: saline 99 % of control | dose: 200.0 mg/kg/injection, schedule: Q04DX002 (ip), vehicle: saline 99 % of control

CN(C)/N=C1\C(=O)Nc2c(Cl)cc(Cl)cc21
inactive: [4] 94 % of control | [5] 94 % of control | [6] 94 % of control

C[CH2][Sn]([CH2]C)([CH2]C)[NH]S(=O)(=O)c1ccc(C)cc1
inactive: dose: 3.12 mg/kg/injection, schedule: Q01DX009 (ip), vehicle: Klucel (hydroxypropylcellulose) (HPC) 105 % of control

CC(=O)OCCOCn1cc(C)[n+]([O-])nc1=O
inactive: [9] 100 % of control | [10] 94 % of control | dose: 240.0 mg/kg/injection, schedule: Q01DX005 (ip), vehicle: saline with Tween-80 95 % of control

COc1cc2cc(c1Cl)N1CC(O)C(C)(O)C(=O)NC(C)C(=O)OC(CC1=O)C1(C)OC1C(C)C1CC(O)(NC(=O)O1)C(OC)/C=C\C=C(\C)C2OC (stereo unspecified)
active: dose: 7.75 micrograms/kg/injection, schedule: Q01DX009 (ip), vehicle: none 153 % of control | dose: 15.5 micrograms/kg/injection, schedule: Q01DX009 (ip), vehicle: none 159 % of control

COC(=O)NC1=Nc2ccc(Cl)cc2NS1
inactive: [12] 102 % of control | [13] 100 % of control | [14] 112 % of control and 97 % of control

CC(=O)OC1CCC2(C)C(C1)CC(OC(C)=O)C1C2CC(OC(C)=O)C2(C)C(/C(C)=C\C=C(c3ccccc3)c3ccccc3)CCC12 (stereo unspecified)
inactive: [4] 103 % of control | [5] 112 % of control | [6] 121 % of control

CCN1C(=O)C(=NO)C(=O)N(CC)C1=S.CCN1C(=O)C(=N[O-])C(=O)N(CC)C1=S.CCN1C(=O)C(=N[O-])C(=O)N(CC)C1=S.[Fe+3]
inactive: dose: 100.0 mg/kg/injection, schedule: Q04DX002 (ip), vehicle: saline with Tween-80 94 % of control | dose: 200.0 mg/kg/injection, schedule: Q04DX002 (ip), vehicle: saline with Tween-80 102 % of control

Cc1cccc2c(Nc3ccc(NS(C)(=O)=O)cc3)c3ccccc3nc12
inactive: dose: 0.53 mg/kg/injection, schedule: Q01DX009 (ip), vehicle: saline 111 % of control | dose: 0.8 mg/kg/injection, schedule: Q01DX009 (ip), vehicle: saline 124 % of control | dose: 300.0 mg/kg/injection, schedule: Q04DX003 (ip), vehicle: saline with Tween-80 122 % of control
active: dose: 7.5 mg/kg/injection, schedule: Q01DX009 (ip), vehicle: saline with Tween-80 166 % of control | dose: 33.0 mg/kg/injection, schedule: Q04DX003 (ip), vehicle: saline with Tween-80 168 % of control | [11] 163 % of control | dose: 75.0 mg/kg/injection, schedule: Q04DX003 (ip), vehicle: saline with Tween-80 163 % of control and 181 % of control | dose: 150.0 mg/kg/injection, schedule: Q04DX003 (ip), vehicle: saline with Tween-80 181 % of control

CC1CCC(C(C)C)/C(=N/NC(=O)c2cccnc2)C1 (stereo unspecified)
inactive: [12] 100 % of control | [13] 104 % of control | [14] 100 % of control

S=c1sscc1-c1ccc2ccccc2c1
inactive: dose: 200.0 mg/kg/injection, schedule: Q04DX003 (ip), vehicle: saline with Tween-80 90 % of control | dose: 400.0 mg/kg/injection, schedule: Q04DX003 (ip), vehicle: saline with Tween-80 97 % of control

CC1(C)OC(=O)C(C)(C2(O)C=CCCC2)O1 (stereo unspecified)
inactive: dose: 100.0 mg/kg/injection, schedule: Q01DX001 (ip), vehicle: Klucel (hydroxypropylcellulose) (HPC) 102 % of control | dose: 200.0 mg/kg/injection, schedule: Q01DX001 (ip), vehicle: Klucel (hydroxypropylcellulose) (HPC) 102 % of control | dose: 400.0 mg/kg/injection, schedule: Q01DX001 (ip), vehicle: Klucel (hydroxypropylcellulose) (HPC) 101 % of control

COc1cc2c(c(OC)c1O)-c1ccc(OC)c(=O)cc1[C@@H](NC(=O)C(F)(F)F)CC2
active: dose: 2.5 mg/kg/injection, schedule: Q01DX009 (ip), vehicle: Klucel (hydroxypropylcellulose) (HPC) 157 % of control | dose: 5.0 mg/kg/injection, schedule: Q01DX005 (ip), vehicle: Klucel (hydroxypropylcellulose) (HPC) 155 % of control | dose: 5.0 mg/kg/injection, schedule: Q01DX009 (ip), vehicle: Klucel (hydroxypropylcellulose) (HPC) 159 % of control and 163 % of control | dose: 10.0 mg/kg/injection, schedule: Q01DX005 (ip), vehicle: Klucel (hydroxypropylcellulose) (HPC) 155 % of control | dose: 10.0 mg/kg/injection, schedule: Q01DX009 (ip), vehicle: Klucel (hydroxypropylcellulose) (HPC) 182 % of control

C=CC=O
inactive: dose: 0.44 mg/kg/injection, schedule: Q01DX009 (ip), vehicle: saline 109 % of control | dose: 0.88 mg/kg/injection, schedule: Q01DX009 (ip), vehicle: saline 109 % of control | dose: 1.56 mg/kg/injection, schedule: Q01DX009 (ip), vehicle: saline 109 % of control
